This is an account of results in publication PMC8297954 (Frontiers in Microbiology, 2021).

“Also recorded” adds a separate entry of the source. Like-named read-outs stand apart in the source and are kept apart here.

The subject of data set [1] is HEK293 cells.
The subject of data set [2] is MHV E protein. To be noted: cited from earlier work.
The subject of data set [3] is MHV. The conditions noted are these: cited from earlier work.
The test system of data set [4] is HCoV-229E. To be noted: cited from earlier work.
Data set [5] concerns HCoV-229E E protein. The conditions noted are these: cited from earlier work.
The subject of data set [6] is viral protein U of human immunodeficiency type 1 virus. To be noted: cited from earlier work.
The subject of data set [7] is transmembrane domain of SARS CoV E protein. The conditions noted are these: lipid bilayers ref Torres et al., 2007; cited from earlier work.
Data set [8] concerns SARS CoV 3a protein. The conditions noted are these: Xenopus oocytes ref Schwarz et al., 2014; cited from earlier work.

For the compound `NC(N)=NC(=O)c1nc(Cl)c(N2CCCCCC2)nc1N` [HMA, 5-(N,N-hexamethylene)amiloride], the “effect on viability of control cells at increasing concentrations” value (from here on “effect … at increasing concentrations”) in data set [1] is “cytotoxic”. Also, the “MTT pRK control” value in data set [1] (human) was 10–50 ↓. Moreover, the “inhibition of E protein ion channel conductance” value in data set [2] and in data set [5] was “inhibits” throughout. Also, the “inhibition of virus replication” value in data set [3] and in data set [4] was “inhibits replication” in each case.
With `O=c1c(-c2ccc(O)cc2)coc2cc(O)cc(O)c12` [Genistein, genistein], the “inhibition of viral protein U” value in data set [6] is listed as “inhibits; also recorded: able to inhibit”. The “effect … at increasing concentrations” value in data set [1] is given as “proliferative”. Besides, in data set [1] (human), the “MTT pRK control” value was 20–50 ↑.
Consider `Oc1ccc(/C=C/c2cc(O)cc(O)c2)cc1` [Resveratrol, resveratrol], for which the “MTT pRK control” value in data set [1] is on record as “neutral”.
As for (–)epicatechin, the “inhibition of viral protein U” value in data set [6] is listed as “not”.
Turning to `COc1ccc(-c2cc(=O)c3c(OC)c(OC)c(OC)c(OC)c3o2)cc1OC` [Nobiletin, nobiletin], the “MTT pRK control” value in data set [1] (human) is reported as 5–50 ↑.
The same measure, in the same setting: to `CCCCCCC[C@H](O)CC(=O)CCc1ccc(O)c(OC)c1` [8-Gingerol, 8-gingerol] belongs 50 ↓.
For the compound `O=c1c(O)c(-c2ccc(O)c(O)c2)oc2cc(O)cc(O)c12` [Quercetin, quercetin], in data set [6], the “inhibition of viral protein U” value was “not”. Besides, in data set [1], the “effect … at increasing concentrations” value is reported as “proliferative”. In addition, the “MTT pRK control” value in data set [1] (human) is given as 10–50 ↑.
Take `CCCCC[C@H](O)CC(=O)CCc1ccc(O)c(OC)c1` [6-Gingerol, 6-gingerol]: the “MTT pRK control” value in data set [1] was “neutral”.
For the compound `CC(N)C12CC3CC(CC(C3)C1)C2` (stereo not shown) [Rimantadine, rimantadine, reference compound], in data set [1], the “MTT pRK control” value is “neutral”.
With `NC12CC3CC(CC(C3)C1)C2` [Amantadine, amantadine, reference compound], in data set [7], the “inhibition of wild-type transmembrane peptides” value was “inhibited”. Besides, the “MTT pRK control” value in data set [1] is listed as “neutral”.
As to `O=c1cc(-c2ccc(O)cc2)oc2cc(O)cc(O)c12` [Apigenin, apigenin], in data set [1], the “effect … at increasing concentrations” value was “cytotoxic”. For the same compound, in data set [1] (human), the “MTT pRK control” value is 5–10↑ 20–50↓ and the “concentrations that were cytotoxic / induced cell death” value was 20 to 50 µM.
As to `O=c1c(O[C@@H]2O[C@@H](CO)[C@H](O)[C@H]2O)c(-c2ccc(O)cc2)oc2cc(O)cc(O)c12` [juglanin], the “inhibition of 3a ion channel” value in data set [8] was “most efficient”.
`O=C1C[C@@H](c2ccc(O)cc2)Oc2cc(O)cc(O)c21` [Naringenin, naringenin]: the “MTT pRK control” value in data set [1] (human) is recorded as 10–50 ↑.
Consider `O=c1c(O)c(-c2ccc(O)cc2)oc2cc(O)cc(O)c12` [Kaempferol, kaempferol], for which the “inhibition of viral protein U” value in data set [6] is listed as “not”. The “effect … at increasing concentrations” value in data set [1] is listed as “proliferative”. Further, the “MTT pRK control” value in data set [1] (human) is 5–50 ↑. Also, in data set [8], the “inhibition of 3a ion channel” value is recorded as “blocks”.
`O=C(O[C@@H]1Cc2c(O)cc(O)cc2O[C@@H]1c1cc(O)c(O)c(O)c1)c1cc(O)c(O)c(O)c1` [EGCG, epigallocatechin gallate]: in data set [1] (human), the “MTT pRK control” value is 5–50 ↑.
As for (–)epigallocatechin, the “inhibition of viral protein U” value in data set [6] is listed as “not”.
